Measured values from the NIST ThermoML archive (doi:10.1021/je400272k).

Assay: wn = mass fraction of the nth substance listed
Settings: Liquid, Vibrating tube method

CCCC[N+](CCCC)(CCCC)CCCC.[Br-] [tetrabutylammonium bromide] + O
mass density [kg/m3]
Settings	283.15 K	285.15 K	288.15 K	291.15 K	293.15 K	298.15 K	303.15 K
100 kPa, w1 = 0.1	1008.7	1008.3	1007.6	1006.7	1006.2	1004.9	1003.2
100 kPa, w1 = 0.14	1012.9	1012.6	1011.6	1010.9	1010	1008.4	1006.3
100 kPa, w1 = 0.2	1019.9	1019.3	1018.1	1017	1016.3	1014.2	1011.9
100 kPa, w1 = 0.3	–	–	1029	1027.4	1026.3	1023.7	1020.7
100 kPa, w1 = 0.4	–	–	1038.5	1036.7	1035.3	1031.9	1028.6
1000 kPa, w1 = 0.1	–	–	1008	1007.1	1006.7	1005.3	1003.7
1000 kPa, w1 = 0.14	–	–	1012.1	1011.2	1010.4	1008.7	1006.6
1000 kPa, w1 = 0.2	–	–	1018.6	1017.4	1016.7	1014.5	1012.4
1000 kPa, w1 = 0.3	–	–	1029.4	1027.7	1026.8	1024	1021.2
1000 kPa, w1 = 0.4	–	–	1039	1037	1035.7	1032.3	1029.2
2000 kPa, w1 = 0.1	–	–	1008.4	1007.6	1007	1005.7	1004.1
2000 kPa, w1 = 0.14	–	–	1012.5	1011.6	1010.8	1009.1	1007
2000 kPa, w1 = 0.2	–	–	1019	1017.8	1017	1014.9	1012.8
2000 kPa, w1 = 0.3	–	–	1029.7	1028.1	1027.1	1024.4	1021.6
2000 kPa, w1 = 0.4	–	–	1039.4	1037.4	1036	1032.7	1029.5
3000 kPa, w1 = 0.1	–	–	1008.9	1008	1007.5	1006.1	1004.5
3000 kPa, w1 = 0.14	–	–	1012.9	1012	1011.2	1009.5	1007.4
3000 kPa, w1 = 0.2	–	–	1019.4	1018.2	1017.5	1015.3	1013.2
3000 kPa, w1 = 0.3	–	–	1030.1	1028.5	1027.5	1024.8	1022
3000 kPa, w1 = 0.4	–	–	1039.7	1037.8	1036.4	1033	1029.9
4000 kPa, w1 = 0.1	–	–	1009.2	1008.4	1007.9	1006.5	1005
4000 kPa, w1 = 0.14	–	–	1013.3	1012.4	1011.6	1009.9	1007.7
4000 kPa, w1 = 0.2	–	–	1019.7	1018.6	1017.8	1015.7	1013.6
4000 kPa, w1 = 0.3	–	–	1030.4	1028.8	1027.9	1025.1	1022.4
4000 kPa, w1 = 0.4	–	–	1040.1	1038.1	1036.8	1033.3	1030.3
5000 kPa, w1 = 0.1	–	–	1009.7	1008.7	1008.3	1006.9	1005.4
5000 kPa, w1 = 0.14	–	–	1013.7	1012.7	1012.1	1010.3	1008.1
5000 kPa, w1 = 0.2	–	–	1020.1	1018.8	1018.2	1016.1	1014
5000 kPa, w1 = 0.3	–	–	1030.7	1029.1	1028.2	1025.5	1022.7
5000 kPa, w1 = 0.4	–	–	1040.4	1038.4	1037.1	1033.7	1030.7
